Test results published in US20250134851A1 (priority 2021, published 2025).

Legend:
[1] = test system: skin wrinkles under the eyes; set-up: species or system human; conditions: in vivo
[2] = test system: hyperhidrosis (hand sweating); set-up: species or system human; conditions: in vivo
[3] = type: physicochemical; conditions: pH 7
[4] = test system: sweating area of hind paw of ICR mice; conditions: mouse, in vivo, 0.8 mg/kg
PC12 cells = type: cell-based

Compound	Reduction of skin wrinkle dermal density (%) [1] [%]	Sweat weight [2] [%]	Residual amount [3]	sweating area relative to control [4]	inhibition of acetylcholine release (PC12 cells)
O=c1c(O)c(-c2cc(O)c(O)c(O)c2)oc2cc(O)cc(O)c12 [Myricetin, myricetin]	48	55	<<10%	–	–
COc1cc(-c2oc3cc(O)cc(O)c3c(=O)c2O)cc(O)c1O [Laricitrin, laricitrin]	38	52	<<10%	–	–
CC(=O)Oc1c(-c2cc(O)c(O)c(O)c2)oc2cc(O)cc(O)c2c1=O [3-Acetyl-Myricetin, 3-acetyl-myricetin]	78	28	≈100%	improved effect to a degree that the previously reported myricetin derivatives cannot provide	inhibit acetylcholine release
COc1cc(O)c2c(=O)c(OC)c(-c3cc(OC)c(OC)c(OC)c3)oc2c1 [Combretol, combretol]	36	56	<<10%	–	–
COc1cc(-c2oc3cc(O)cc(O)c3c(=O)c2O)cc(OC)c1O [Syringetin, syringetin]	37	53	<<10%	–	–
